Patent US10457709B2, “Antimicrobial peptides, their variants and uses” (priority 2015, dated 2019)
Converted amounts (≈) assume the structure as drawn. Square brackets hold non-standard residues; d marks the D form. Ends that are not written are not given here. Peptide text beside a SMILES is read from it.

Columns and labels:
[1] = tested on: Candida albicans clinical strains; assay: MIC, clinical yeast strains; type: cell-based; design: unit: μg/ml
Procedure: (§1) Minimum inhibition concentrations (MICs) were determined against Escherichia coli (ATCC 25922), Staphylococcus aureus (ATCC 25923), Klebsiella pneumoniae (ATCC 10031) and Pseudomonas aeruginosa (ATCC 27853). Also clinical strains of E. coli, K. pneumoniae, E. cloacae, P. aeruginosa, Serratia marcescens, Proteus mirabilis, S. pneumoniae, Acinetobacter baumannii, A. johnsonii and S. aureus were used for MICs assays. Additionally, clinical strains of yeast including Candida albicans, C. glabrata, C. parapsilosis and C. quillermondiae were used. The susceptibility of these microorganisms to Chain peptides were determined using micro broth dilution assay. Colonies of the respective microorganism from Muller Hinton (MH) agar plates incubated overnight were suspended in MH broth media and final concentration of microorganism was adjusted to 5.0×10^5 cfu/ml. An aliquot of 10 μl of each Chain peptide, or gentamicin, tetracycline as reference antibiotics were added in differing concentrations along with 90 μl of bacterial suspension to 96 well polypropylene plates and incubated at 37° C. for 20 to 24 hours. Concentrations of Chain peptides and reference antibiotics ranged from 0.125 to 128 μg/ml and the MICs were recorded as the lowest concentration with no visual growth of bacteria. Similarly, antifungal MICs were tested in Potato dextrose broth.
(§2) Clinical strains of yeasts including Candida albicans, C. glabrata, C. parapsilosis and C. quillermondiae were also tested with the 12 Chain peptides. The minimum inhibitory concentration (MICs) varied between these peptides and are presented in Tables 4a, 4b, 4c and 5a, 5b, 5c. Peptides Chain 105, 201 and 308 are broad spectrum antimicrobials with MICs between 0.5-32 μg/ml against all the bacteria and yeasts tested, except Serratia marcescens and Proteus mirabilis, against which the MICs were between 64-128 μg/ml. Peptide Chain 306 has narrow spectrum activity against E. coli at 1 μg/ml and for the rest of the bacterial strains at >32 μg/ml (FIG. 10c).

[2] = tested on: Klebsiella pneumoniae clinical strains; type: cell-based; details: clinical strains
Procedure: as §1, §2

[3] = tested on: Pseudomonas aeruginosa clinical strains; type: cell-based; details: clinical strains
Procedure: as §1, §2

[4] = tested on: Escherichia coli clinical strains; type: cell-based; details: clinical strains
Procedure: as §1, §2

[5] = tested on: C. glabrata clinical strains; assay: MIC, clinical yeast strains; type: cell-based, Candida glabrata; design: unit: µg/ml
Procedure: as §1, §2

[6] = tested on: C. quillermondiae clinical strains; assay: MIC, clinical yeast strains; type: cell-based, Candida quillermondiae; design: unit: μg/ml; details: C. quillermondiae clinical yeast strain 1
Procedure: as §1, §2

[7] = tested on: C. parapsilosis clinical strains; assay: MIC, clinical yeast strains; type: cell-based, Candida parapsilosis; design: unit: µg/ml
Procedure: as §1, §2

[8] = tested on: Enterobacter cloacae clinical strains; type: cell-based; details: clinical strains
Procedure: as §1, §2

[9] = tested on: Serratia marcescens clinical strains; type: cell-based; details: clinical strains
Procedure: as §1, §2

[10] = tested on: Staphylococcus aureus clinical strains; type: cell-based; details: clinical strains
Procedure: as §1, §2

[11] = tested on: Proteus mirabilis clinical strains; type: cell-based; details: clinical strains
Procedure: as §1, §2

[12] = tested on: Streptococcus pneumoniae clinical strains; type: cell-based; details: clinical strains
Procedure: as §1, §2

[13] = tested on: MRSA strains (S. aureus COL); assay: MIC, synergistic activity with Ertapenem (4 μg/ml); type: cell-based, Staphylococcus aureus; details: S. aureus COL, synergistic activity with 4 μg/ml Ertapenem
Procedure: as §1
(§3) Peptides Chain 104, Chain 105, Chain 201, Chain 308, Chain 310 were tested against antibiotic-sensitive strains of S. aureus RN4220 and methicillin resistant strains of S. aureus COL (MRSA). Chain peptides comprising of either L- or D-form amino acids were tested against these bacteria, and the D-form peptides were found have better activity compared to L-form (Table 6). Synergistic activity of chain peptides along with Ertapenem (4 μg/ml) was tested to know whether it will influence the activity against MRSA strains. […] Chain 310 has the best antibacterial activity against the MRSA strains with a MIC of 0.06 & 0.03 μg/ml along with Ertapenem (4 μg/ml) for both forms of L and D-peptides (Table 6).

[14] = tested on: S. aureus COL (MRSA); type: cell-based, Staphylococcus aureus
Procedure: as §1, §3

[15] = tested on: S. aureus RN4220; type: cell-based, Staphylococcus aureus; details: antibiotic sensitive strain S. aureus RN4220
Procedure: as §1, §3

Molecule: CC(C)C[C@@H](NC(=O)[C@@H](CCCCN)NC(=O)[C@@H](Cc1c[nH]c2ccccc12)NC(=O)[C@@H](CCCCN)NC(=O)[C@@H](C)NC(=O)[C@@H](Cc1c[nH]cn1)NC(=O)[C@@H](CC(C)C)NC(=O)[C@@H](CCCNC(=N)N)NC(=O)[C@@H](Cc1c[nH]c2ccccc12)NC(=O)[C@H](N)Cc1c[nH]c2ccccc12)C(=O)N[C@H](Cc1c[nH]c2ccccc12)C(=O)O [Chain109D] (H-[dW][dW][dR][dL][dH][dA][dK][dW][dK][dL][dW]-OH)
- Minimum inhibitory concentration ([1]; Candida albicans clinical yeast strain 1): 128
- Minimum inhibitory concentration ([1]; Candida albicans clinical yeast strain 2): 128
- Minimum inhibitory concentration ([1]; Candida albicans clinical yeast strain 3): 128
- Minimum inhibitory concentration ([1]; Candida albicans clinical yeast strain 4): 128
- Minimum inhibitory concentration ([1]; Candida albicans clinical yeast strain 5): 128
- MIC, Klebsiella pneumoniae strain 1 [2]: 16 mg/L (≈ 9.94 µM)
- MIC, Klebsiella pneumoniae strain 2 [2]: 8 mg/L (≈ 4.97 µM)
- MIC, Klebsiella pneumoniae strain 3 [2]: 8 mg/L (≈ 4.97 µM)
- MIC, Klebsiella pneumoniae strain 4 [2]: 16 mg/L (≈ 9.94 µM)
- MIC, Klebsiella pneumoniae strain 5 [2]: 8 mg/L (≈ 4.97 µM)
- MIC, Pseudomonas aeruginosa strain 1 [3]: 16 mg/L (≈ 9.94 µM)
- MIC, Pseudomonas aeruginosa strain 2 [3]: 16 mg/L (≈ 9.94 µM)
- MIC, Pseudomonas aeruginosa strain 3 [3]: 16 mg/L (≈ 9.94 µM)
- MIC, Pseudomonas aeruginosa strain 4 [3]: 16 mg/L (≈ 9.94 µM)
- MIC, Pseudomonas aeruginosa strain 5 [3]: 8 mg/L (≈ 4.97 µM)
- MIC, Escherichia coli strain 1 [4]: 16 mg/L (≈ 9.94 µM)
- MIC, Escherichia coli strain 2 [4]: 4 mg/L (≈ 2.48 µM)
- MIC, Escherichia coli strain 3 [4]: 4 mg/L (≈ 2.48 µM)
- MIC, Escherichia coli strain 4 [4]: 4 mg/L (≈ 2.48 µM)
- MIC, Escherichia coli strain 5 [4]: 4 mg/L (≈ 2.48 µM)
- Minimum inhibitory concentration ([5]; C. glabrata clinical yeast strain 1): 128
- Minimum inhibitory concentration ([5]; C. glabrata clinical yeast strain 2): 128
- Minimum inhibitory concentration ([5]; C. glabrata clinical yeast strain 3): 16
- Minimum inhibitory concentration ([5]; C. glabrata clinical yeast strain 4): 64
- Minimum inhibitory concentration [6]: 128
- Minimum inhibitory concentration ([7]; C. parapsilosis clinical yeast strain 1): 128
- Minimum inhibitory concentration ([7]; C. parapsilosis clinical yeast strain 2): 128
- Minimum inhibitory concentration ([7]; C. parapsilosis clinical yeast strain 3): 128
- Minimum inhibitory concentration ([7]; C. parapsilosis clinical yeast strain 4): 8
- MIC, Enterobacter cloacae strain 1 [8]: 4 mg/L (≈ 2.48 µM)
- MIC, Enterobacter cloacae strain 2 [8]: 8 mg/L (≈ 4.97 µM)
- MIC, Enterobacter cloacae strain 3 [8]: 8 mg/L (≈ 4.97 µM)
- MIC, Enterobacter cloacae strain 4 [8]: 8 mg/L (≈ 4.97 µM)
- MIC, Enterobacter cloacae strain 5 [8]: 4 mg/L (≈ 2.48 µM)
- MIC, Serratia marcescens strain 1 [9]: >128 mg/L
- MIC, Serratia marcescens strain 2 [9]: >128 mg/L
- MIC, Serratia marcescens strain 3 [9]: >128 mg/L
- MIC, Serratia marcescens strain 4 [9]: >128 mg/L
- MIC, Serratia marcescens strain 5 [9]: 64 mg/L (≈ 39.8 µM)
- MIC, Staphylococcus aureus strain 1 [10]: 2 mg/L (≈ 1.24 µM)
- MIC, Staphylococcus aureus strain 2 [10]: 4 mg/L (≈ 2.48 µM)
- MIC, Staphylococcus aureus strain 3 [10]: 2 mg/L (≈ 1.24 µM)
- MIC, Staphylococcus aureus strain 4 [10]: 2 mg/L (≈ 1.24 µM)
- MIC, Staphylococcus aureus strain 5 [10]: 2 mg/L (≈ 1.24 µM)
- MIC, Proteus mirabilis strain 1 [11]: >128 mg/L
- MIC, Proteus mirabilis strain 2 [11]: 64 mg/L (≈ 39.8 µM)
- MIC, Proteus mirabilis strain 3 [11]: 64 mg/L (≈ 39.8 µM)
- MIC, Proteus mirabilis strain 4 [11]: >128 mg/L
- MIC, Proteus mirabilis strain 5 [11]: >128 mg/L
- MIC, Streptococcus pneumoniae strain 1 [12]: 16 mg/L (≈ 9.94 µM)
- MIC, Streptococcus pneumoniae strain 2 [12]: 8 mg/L (≈ 4.97 µM)
- MIC, Streptococcus pneumoniae strain 3 [12]: 2 mg/L (≈ 1.24 µM)
- MIC, Streptococcus pneumoniae strain 4 [12]: 8 mg/L (≈ 4.97 µM)
- MIC, Streptococcus pneumoniae strain 5 [12]: 8 mg/L (≈ 4.97 µM)

Molecule: CC[C@@H](C)[C@@H](NC(=O)[C@@H](CCSC)NC(=O)[C@@H](C)NC(=O)[C@@H](CCCNC(=N)N)NC(=O)[C@@H](Cc1c[nH]c2ccccc12)NC(=O)[C@@H](CCCCN)NC(=O)[C@H](N)CCCNC(=N)N)C(=O)N[C@H](CCCNC(=N)N)C(=O)N[C@H](CC(C)C)C(=O)N[C@H](Cc1c[nH]cn1)C(=O)N[C@H](C)C(=O)N[C@H](CCCCN)C(=O)N[C@H](Cc1c[nH]c2ccccc12)C(=O)N[C@H](CC(C)C)C(=O)N[C@H](CCCNC(=N)N)C(=O)N[C@H](CCCCN)C(=O)O [105 D] (H-[dR][dK][dW][dR][dA][dM][dI][dR][dL][dH][dA][dK][dW][dL][dR][dK]-OH)
- Minimum inhibitory concentration (MIC), S. aureus COL + 4 μg/ml Ertapenem [13]: 2 mg/L
- Minimum inhibitory concentration (MIC), S. aureus COL (MRSA) [14]: 8 mg/L
- Minimum inhibitory concentration (MIC), S. aureus RN4220 [15]: 16 mg/L

Molecule: CC(C)C[C@@H](NC(=O)[C@@H](CCCCN)NC(=O)[C@@H](CCCCN)NC(=O)[C@@H](Cc1ccccc1)NC(=O)[C@@H](CC(C)C)NC(=O)[C@@H](Cc1c[nH]c2ccccc12)NC(=O)[C@@H](CCCNC(=N)N)NC(=O)[C@@H](Cc1c[nH]c2ccccc12)NC(=O)[C@@H](CCCCN)NC(=O)[C@@H](CCCNC(=N)N)NC(=O)[C@H](N)CCCCN)C(=O)O [310 D] (H-[dK][dR][dK][dW][dR][dW][dL][dF][dK][dK][dL]-OH)
- Minimum inhibitory concentration (MIC), S. aureus COL + 4 μg/ml Ertapenem [13]: <0.03 mg/L
- Minimum inhibitory concentration (MIC), S. aureus COL (MRSA) [14]: >64 mg/L
- Minimum inhibitory concentration (MIC), S. aureus RN4220 [15]: >64 mg/L

Molecule: RLKWFLLFRKR [Compound 308]
- Minimum inhibitory concentration (MIC), S. aureus COL + 4 μg/ml Ertapenem [13]: 0.5 mg/L
- Minimum inhibitory concentration (MIC), S. aureus COL (MRSA) [14]: >64 mg/L
- Minimum inhibitory concentration (MIC), S. aureus RN4220 [15]: >64 mg/L

Molecule: CC[C@@H](C)[C@@H](NC(=O)[C@@H](Cc1c[nH]c2ccccc12)NC(=O)[C@H](N)CCCCN)C(=O)N[C@@H](C(=O)N[C@H](Cc1c[nH]c2ccccc12)C(=O)N[C@H](CCCNC(=N)N)C(=O)N[C@H](Cc1c[nH]c2ccccc12)C(=O)N[C@H](CCCNC(=N)N)C(=O)N[C@H](Cc1ccccc1)C(=O)N[C@H](CCCCN)C(=O)N[C@H](CCCNC(=N)N)C(=O)O)C(C)C [201 D] (H-[dK][dW][dI][dV][dW][dR][dW][dR][dF][dK][dR]-OH)
- Minimum inhibitory concentration (MIC), S. aureus COL + 4 μg/ml Ertapenem [13]: 1 mg/L
- Minimum inhibitory concentration (MIC), S. aureus COL (MRSA) [14]: 2 mg/L
- Minimum inhibitory concentration (MIC), S. aureus RN4220 [15]: 2 mg/L
